Laboratory results: ChEMBL document CHEMBL1201862, “PubChem BioAssay data set” (2004)
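Growth conditions: 96-well plates. Treatment: test compound, 48 hours, 5 concentrations. Analysis: linear interpolation between bracketing concentrations; unreached endpoints set to highest concentration. At the GI50, growth is halved.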 Calls of active or inactive are those of the source. No stated cut-off is given here; in the data, active = GI50 up to about 1.1 µM and inactive = higher.

Key:
Experiment in all cases: NCI-60 cell line screen, 48 h
SF-539 = test system: SF-539
KM12 = test system: KM12
HT-29 = test system: HT-29
Hs-578T = test system: Hs-578T
MDA-N = test system: MDA-N
SK-MEL-5 = test system: SK-MEL-5
TK-10 = test system: TK-10
U-251 = test system: U-251
NCI-H522 = test system: NCI-H522
SF-268 = test system: SF-268
PC-3 = test system: PC-3
COLO 205 = test system: COLO 205
SN12C = test system: SN12C
BT-549 = test system: BT-549
EKVX = test system: EKVX
SK-MEL-2 = test system: SK-MEL-2
SNB-75 = test system: SNB-75
MDA-MB-435 = test system: MDA-MB-435
SR = test system: SR
OVCAR-8 = test system: OVCAR-8
RPMI-8226 = test system: RPMI-8226
MOLT-4 = test system: MOLT-4
NCI/ADR-RES = test system: NCI/ADR-RES
LOX IMVI = test system: LOX IMVI
HCT-116 = test system: HCT-116
MDA-MB-231 = test system: MDA-MB-231
SK-MEL-28 = test system: SK-MEL-28
SNB-19 = test system: SNB-19
T47D = test system: T47D
NCI-H226 = test system: NCI-H226
K562 = test system: K562
HOP-62 = test system: HOP-62
SK-OV-3 = test system: SK-OV-3
OVCAR-5 = test system: OVCAR-5
A549 = test system: A549
A498 = test system: A498
M14 = test system: M14
HCT-15 = test system: HCT-15
NCI-H460 = test system: NCI-H460
786-0 = test system: 786-0
UACC-257 = test system: UACC-257
IGROV-1 = test system: IGROV-1
HCC 2998 = test system: HCC 2998
HL-60 = test system: HL-60
ACHN = test system: ACHN
SW-620 = test system: SW-620
CCRF-CEM = test system: CCRF-CEM
DU-145 = test system: DU-145
SF-295 = test system: SF-295
NCI-H23 = test system: NCI-H23
MCF7 = test system: MCF7
OVCAR-3 = test system: OVCAR-3
CAKI-1 = test system: CAKI-1
Malme-3M = test system: Malme-3M
OVCAR-4 = test system: OVCAR-4
UO-31 = test system: UO-31
RXF 393 = test system: RXF 393
UACC-62 = test system: UACC-62
HOP-92 = test system: HOP-92

## Cc1ccc(S(=O)(=O)C2=Cc3ccccc3C2(O)c2ccccc2)cc1 (configuration not stated)
SF-539
  GI50: 24 µM (inactive)
KM12
  GI50: 21.4 µM (inactive)
HT-29
  GI50: 19.7 µM (inactive)
Hs-578T
  GI50: 22.6 µM (inactive)
MDA-N
  GI50: 18.7 µM (inactive)
SK-MEL-5
  GI50: 16.6 µM (inactive)
TK-10
  GI50: 35.3 µM (inactive)
U-251
  GI50: 26.7 µM (inactive)
NCI-H522
  GI50: 21.5 µM (inactive)
SF-268
  GI50: 27.2 µM (inactive)
PC-3
  GI50: 27.4 µM (inactive)
COLO 205
  GI50: 24.5 µM (inactive)
SN12C
  GI50: 17.4 µM (inactive)
BT-549
  GI50: 24 µM (inactive)
EKVX
  GI50: 24.9 µM (inactive)
SK-MEL-2
  GI50: 15.4 µM (inactive)
SNB-75
  GI50: 31 µM (inactive)
MDA-MB-435
  GI50: 30.8 µM (inactive)
SR
  GI50: 22.2 µM (inactive)
OVCAR-8
  GI50: 22.8 µM (inactive)
RPMI-8226
  GI50: 15.8 µM (inactive)
MOLT-4
  GI50: 29.2 µM (inactive)
NCI/ADR-RES
  GI50: 25.5 µM (inactive)
LOX IMVI
  GI50: 17.6 µM (inactive)
HCT-116
  GI50: 33.3 µM (inactive)
MDA-MB-231
  GI50: 17.7 µM (inactive)
SK-MEL-28
  GI50: 16.3 µM (inactive)
SNB-19
  GI50: 43.8 µM (inactive)
T47D
  GI50: 34.3 µM (inactive)
NCI-H226
  GI50: 29.3 µM (inactive)
K562
  GI50: 25.1 µM (inactive)
HOP-62
  GI50: > 10 µM (inactive)
SK-OV-3
  GI50: 29.3 µM (inactive)
OVCAR-5
  GI50: 60.4 µM (inactive)
A549
  GI50: 32.2 µM (inactive)
A498
  GI50: > 10 µM (inactive)
M14
  GI50: 13.5 µM (inactive)
HCT-15
  GI50: 32.7 µM
NCI-H460
  GI50: 22.7 µM (inactive)
786-0
  GI50: > 10 µM (inactive)
UACC-257
  GI50: > 10 µM (inactive)
IGROV-1
  GI50: 47.1 µM (inactive)
HCC 2998
  GI50: 10.4 µM (inactive)
HL-60
  GI50: 13.2 µM (inactive)
ACHN
  GI50: 34.3 µM (inactive)
SW-620
  GI50: 29.8 µM (inactive)
CCRF-CEM
  GI50: 15.7 µM (inactive)
DU-145
  GI50: 34.8 µM (inactive)
SF-295
  GI50: 25.4 µM (inactive)
NCI-H23
  GI50: 37.2 µM (inactive)

## CCOc1ccc(C(=O)/C=C2/Nc3ccccc3N/C2=C/C(=O)c2ccc(OCC)cc2)cc1
SF-539
  GI50: > 100 µM (inactive)
HT-29
  GI50: > 100 µM (inactive)
MCF7
  GI50: > 100 µM (inactive)
Hs-578T
  GI50: 37.6 µM (inactive)
MDA-N
  GI50: > 100 µM (inactive)
OVCAR-3
  GI50: > 100 µM (inactive)
CAKI-1
  GI50: > 100 µM (inactive)
SK-MEL-5
  GI50: > 100 µM (inactive)
TK-10
  GI50: > 100 µM (inactive)
U-251
  GI50: > 100 µM (inactive)
NCI-H522
  GI50: > 100 µM (inactive)
SF-268
  GI50: > 100 µM (inactive)
PC-3
  GI50: > 100 µM (inactive)
COLO 205
  GI50: > 100 µM (inactive)
SN12C
  GI50: > 100 µM (inactive)
Malme-3M
  GI50: 41.7 µM (inactive)
BT-549
  GI50: > 100 µM (inactive)
EKVX
  GI50: > 100 µM (inactive)
SK-MEL-2
  GI50: > 100 µM (inactive)
MDA-MB-435
  GI50: > 100 µM (inactive)
SR
  GI50: 3.43 µM (inactive)
RPMI-8226
  GI50: > 100 µM (inactive)
MOLT-4
  GI50: 81.3 µM (inactive)
OVCAR-4
  GI50: 72.3 µM (inactive)
LOX IMVI
  GI50: > 100 µM (inactive)
HCT-116
  GI50: 78.2 µM (inactive)
MDA-MB-231
  GI50: > 100 µM (inactive)
SK-MEL-28
  GI50: > 100 µM (inactive)
SNB-19
  GI50: > 100 µM (inactive)
UO-31
  GI50: > 100 µM (inactive)
RXF 393
  GI50: > 100 µM (inactive)
T47D
  GI50: > 100 µM (inactive)
UACC-62
  GI50: > 100 µM (inactive)
NCI-H226
  GI50: > 100 µM (inactive)
K562
  GI50: > 100 µM (inactive)
HOP-62
  GI50: > 100 µM (inactive)
SK-OV-3
  GI50: > 100 µM (inactive)
OVCAR-5
  GI50: > 100 µM (inactive)
A549
  GI50: > 100 µM (inactive)
A498
  GI50: > 100 µM (inactive)
M14
  GI50: > 100 µM (inactive)
HOP-92
  GI50: > 100 µM (inactive)
HCT-15
  GI50: 96.4 µM
NCI-H460
  GI50: 85.3 µM (inactive)
786-0
  GI50: 80 µM (inactive)
UACC-257
  GI50: > 100 µM (inactive)
IGROV-1
  GI50: 57.9 µM (inactive)
HCC 2998
  GI50: > 100 µM (inactive)
HL-60
  GI50: > 100 µM (inactive)
ACHN
  GI50: > 100 µM (inactive)
SW-620
  GI50: > 100 µM (inactive)
CCRF-CEM
  GI50: 29.7 µM (inactive)
DU-145
  GI50: > 100 µM (inactive)
SF-295
  GI50: > 100 µM (inactive)
NCI-H23
  GI50: > 100 µM (inactive)

## COC(=O)C[C@H]1[C@]2(C)C3=C(C)[C@H](c4ccoc4)CC3O[C@@H]2[C@@H]2OC(=O)[C@]3(C)CCC(=O)[C@@]1(C)[C@@H]23 (some centres not stated)
KM12
  GI50: > 100 µM (inactive)
HT-29
  GI50: 33.8 µM (inactive)
MCF7
  GI50: 31.4 µM (inactive)
Hs-578T
  GI50: 36.1 µM (inactive)
MDA-N
  GI50: 49.9 µM (inactive)
OVCAR-3
  GI50: 53 µM (inactive)
CAKI-1
  GI50: 52.5 µM (inactive)
SK-MEL-5
  GI50: 56.6 µM (inactive)
U-251
  GI50: 60.8 µM (inactive)
NCI-H522
  GI50: 14.5 µM (inactive)
SF-268
  GI50: 48 µM (inactive)
COLO 205
  GI50: 62.8 µM (inactive)
SN12C
  GI50: 69.7 µM (inactive)
Malme-3M
  GI50: 40.4 µM (inactive)
BT-549
  GI50: 51.5 µM (inactive)
SK-MEL-2
  GI50: > 100 µM (inactive)
SNB-75
  GI50: 42.8 µM (inactive)
MDA-MB-435
  GI50: 37.2 µM (inactive)
SR
  GI50: 19.6 µM (inactive)
OVCAR-8
  GI50: 44.8 µM (inactive)
RPMI-8226
  GI50: 19.1 µM (inactive)
MOLT-4
  GI50: 20 µM (inactive)
OVCAR-4
  GI50: 41.3 µM (inactive)
NCI/ADR-RES
  GI50: 48.6 µM (inactive)
LOX IMVI
  GI50: 40.1 µM (inactive)
HCT-116
  GI50: 35.4 µM (inactive)
MDA-MB-231
  GI50: > 100 µM (inactive)
SK-MEL-28
  GI50: 32.5 µM (inactive)
UO-31
  GI50: 54.5 µM (inactive)
RXF 393
  GI50: 53.5 µM (inactive)
T47D
  GI50: > 100 µM (inactive)
UACC-62
  GI50: 49.2 µM (inactive)
K562
  GI50: 35.2 µM (inactive)
HOP-62
  GI50: > 100 µM (inactive)
SK-OV-3
  GI50: > 100 µM (inactive)
OVCAR-5
  GI50: 27.5 µM (inactive)
A549
  GI50: 47.1 µM (inactive)
A498
  GI50: > 100 µM (inactive)
M14
  GI50: 41.6 µM (inactive)
HOP-92
  GI50: > 100 µM (inactive)
HCT-15
  GI50: 38.8 µM
NCI-H460
  GI50: > 100 µM (inactive)
786-0
  GI50: 32.3 µM (inactive)
UACC-257
  GI50: 61 µM (inactive)
IGROV-1
  GI50: 71.3 µM (inactive)
HL-60
  GI50: 22.8 µM (inactive)
ACHN
  GI50: > 100 µM (inactive)
SW-620
  GI50: 50.6 µM (inactive)
CCRF-CEM
  GI50: 19.9 µM (inactive)
DU-145
  GI50: 32.4 µM (inactive)
SF-295
  GI50: > 100 µM (inactive)
NCI-H23
  GI50: 46.5 µM (inactive)
